Data published in ChEMBL document CHEMBL1777740, “Toward self-adjuvanting subunit vaccines: model peptide and protein antigens incorporating covalently bound toll-like receptor-7 agonistic imidazoquinolines” (Bioorg Med Chem Lett, 2011).
Activity calls are given as the source filed them. No cut-off for these calls is given here.

Tests used:
Format in all cases: functional, cell-based
[1] = target: T1, Toll-like receptor 7 (Homo sapiens) (UniProt Q9NYK1); test: Agonist activity at human TLR7 transfected in HEK reporter cells assessed as NF-kappaB induction by specific secreted alkaline phosphatase gene assay; conditions: HEK293
T1 sequence (whole entry): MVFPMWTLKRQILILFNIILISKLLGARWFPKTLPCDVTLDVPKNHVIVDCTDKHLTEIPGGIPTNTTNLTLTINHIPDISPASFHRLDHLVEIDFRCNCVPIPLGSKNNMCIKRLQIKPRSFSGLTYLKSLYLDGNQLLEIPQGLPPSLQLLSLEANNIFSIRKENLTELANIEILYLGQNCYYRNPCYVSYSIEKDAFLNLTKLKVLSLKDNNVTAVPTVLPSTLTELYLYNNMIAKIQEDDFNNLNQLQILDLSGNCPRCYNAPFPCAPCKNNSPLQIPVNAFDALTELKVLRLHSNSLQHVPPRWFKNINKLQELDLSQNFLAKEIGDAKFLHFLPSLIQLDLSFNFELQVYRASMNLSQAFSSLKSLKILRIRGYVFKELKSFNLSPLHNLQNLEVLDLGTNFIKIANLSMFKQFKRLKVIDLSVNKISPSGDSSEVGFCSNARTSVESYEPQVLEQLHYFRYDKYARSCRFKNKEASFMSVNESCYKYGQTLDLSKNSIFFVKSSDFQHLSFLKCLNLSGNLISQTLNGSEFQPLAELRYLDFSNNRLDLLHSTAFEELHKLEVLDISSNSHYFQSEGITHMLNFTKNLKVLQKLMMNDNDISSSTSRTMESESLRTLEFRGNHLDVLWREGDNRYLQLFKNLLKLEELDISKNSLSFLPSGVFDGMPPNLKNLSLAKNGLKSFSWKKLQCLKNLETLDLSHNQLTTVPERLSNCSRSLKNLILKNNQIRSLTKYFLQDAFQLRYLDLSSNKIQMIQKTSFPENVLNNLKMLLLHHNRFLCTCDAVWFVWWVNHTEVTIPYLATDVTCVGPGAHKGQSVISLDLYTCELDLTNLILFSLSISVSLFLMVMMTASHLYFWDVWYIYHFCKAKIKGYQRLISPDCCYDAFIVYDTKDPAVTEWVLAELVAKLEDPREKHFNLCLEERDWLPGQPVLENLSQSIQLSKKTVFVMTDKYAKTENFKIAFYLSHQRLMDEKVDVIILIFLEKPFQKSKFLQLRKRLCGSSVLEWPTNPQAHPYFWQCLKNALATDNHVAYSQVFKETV

PBMC [2] = test: Immunostimulatory activity in human PBMC assessed as Th1-biased immunostimulatory activity measured as IFN-gamma release by ELISA
PBMC [3] = test: Immunostimulatory activity in human PBMC assessed as Th1-biased immunostimulatory activity measured as IL18 release by ELISA
PBMC [4] = test: Immunostimulatory activity in human PBMC assessed as Th1-biased immunostimulatory activity measured as IFNalpha release by ELISA
PBMC [5] = test: Immunostimulatory activity in human PBMC assessed as Th1-biased immunostimulatory activity measured as IL12 release by ELISA

Activity [1] | SMILES | Activity (PBMC [2]) | Activity (PBMC [3]) | Activity (PBMC [4]) | Activity (PBMC [5])
inactive | CCCCc1nc2c(N)nc3ccccc3c2n1Cc1ccc(CNC(=O)CCN2C(=O)CC(SC[C@@H](NC(=O)CC[C@@H](N)C(=O)O)C(=O)NCC(=O)O)C2=O)cc1 (stereo not given in full) |  |  |  | 
 | CCCCc1nc2c(N)nc3ccccc3c2n1Cc1ccc(CN)cc1 | Active | Active | Active | Active
